Source: patent US20230167121A1, “SUBSTITUTED {1,2,4,} TRIAZOLO{1,5-A} PYRIMIDINE COMPOUNDS AND USE IN STABILIZING MICROTUBULES” (THE TRUSTEES OF THE UNIVERSITY OF PENNSYLVANIA, priority 2020, published 2023)
Several values for one entry are separate records, joined by “and”; a condition that tells them apart may be missing. Equal entries are not always repeated. Structures can show the parent of a compound that is named as a salt. Where two headings read alike, the source gives them in different places. One block for each compound: values may come before it.

How the values were obtained:
MTs = conditions: versus vincristine, taxol, colchicine; cited from earlier work
total α-tubulin = experiment: cell-based assay of MT-stabilization: total α-tubulin in QBI293 cell lysates by ELISA; conditions: QB1293 cells
Procedure: (§1) All test compounds were evaluated in a previously described cell-based assay of MT-stabilization (see Kovalevich, J., et al. (2016) Characterization of Brain-Penetrant Pyrimidine-Containing Molecules with Differential Microtubule-Stabilizing Activities Developed as Potential Therapeutic Agents for Alzheimer's Disease and Related Tauopathies. J Pharmacol Exp Ther 357, 432-450, incorporated herein by reference), in which compound-dependent changes in tubulin polymerization and total tubulin levels were determined after 4 h of incubation of QBI293 cells with 1 and 10 μM compound via quantification of acetylated α-tubulin and total tubulin in cell lysates by ELISA.
(§2) Novel C6 nitrile- and alkyne-substituted triazolopyrimidine examples that have improved in vitro activity relative to previously described examples, with the general structure depicted in Formula I. The activity of the novel C6-nitrile substituted compounds were tested in a previously described cellular assay of MT-stabilization (Kovalevich, J., et al. (2016)). As summarized in Table 2. below, eighteen examples were synthesized and tested. In all cases, these compounds were confirmed to be active Class I triazolopyrimidines. […] Table 2 provides fold-changes in acetylated α-tubulin and total α-tubulin levels in QB1293 cells after 4 h incubation with test compounds at either 1 or 10 μM. Data are expressed as the fold-change relative to vehicle-treated cells. *p<0.05 and **p<0.01 by one-way ANOVA.
(§3) Compounds produced according to the preceding synthetic schemes were for microtubule stabilization. Fold-changes in acetylated α-tubulin (AcTub) and α-tubulin (α-Tub) levels in QB1293 cells after 4 h incubation with test compounds at either 1 or 10 μM. Reported values for AcTub and α-Tub represent the fold-change over control (DMSO)-treated cells (*p<0.05 and **p<0.01 by one-way ANOVA); numbers in parentheses represent the fold-change of AcTub over positive control-treated cells (i.e., 100 nM of cevipabulin). Changes of +/−15% of control are deemed to be within the day-to-day assay variability and non-significant.

acetylated α-tubulin = experiment: cell-based assay of MT-stabilization: acetylated α-tubulin in QBI293 cell lysates by ELISA; conditions: for fold induction at 1 µM: QBI293
Procedure: as §1, §2, §3

B/P of Table 4 = conditions: in vivo
[1] = Plasma and brain compound determinations (LC-MS/MS); type: in vivo; conditions: CD1 mice, 2.5 mg/kg each, one hour after dosing; for concentration at 1 h / Kp at 1 h: CD1, mouse, 2.5 mg/kg; for concentration at 1 h / Brain Concentration / Plasma Concentration: dosed concurrently
Procedure: CD1 mice (n=3) were dosed concurrently with CNDR-51990 and CNDR-51993 (representing a 1:1 mixture of two diastereoisomers, 52017 (67) and 52016 (68)) at 2.5 mg/kg each). One hour after dosing, mice were euthanized and blood collected, followed by perfusion with saline. Mouse brains were homogenized in 10 mM ammonium acetate, pH 5.7 (1:2; w/v) using a handheld sonic homogenizer. Mouse plasma was obtained from blood that was collected into a 1.5 ml tube containing 0.5M EDTA solution and which was centrifuged for 10 minutes at 4500 g at 4° C. Aliquots (50 μl) of brain homogenates or plasma were mixed with 0.2 ml of acetonitrile, centrifuged at 15,000×g, and the resulting supernatant was used for subsequent LC-MS/MS analysis. The LC-MS/MS analysis was conducted by Inotiv, Inc., utilizing methods essentially as previously described (Lou et al., J. Med. Chem. 57:6116-27, 2014).

[2] = QBI293, 4 h, Table 4, 4 h, 1 μM, read-out: α-Tub l μM (fold-change over control (DMSO)-treated cells)
[3] = QBI293, 4 h, Table 4, 4 h, 10 μM, read-out: α-Tub 10 μM (fold-change over control (DMSO)-treated cells)
[4] = Table 4, QB1293 cells, 4 h, 1 μM, *p<0.05, **p<0.01, read-out: AcTub 1 μM (fold-change over control (DMSO)-treated cells)
[5] = QBI293, 4 h, 4 h incubation, 1 μM compound, relative to vehicle-treated cells, read-out: α-Tub 1 μM (fold-change in total α-tubulin)
[6] = QBI293, 4 h, 4 h incubation, 10 μM compound, relative to vehicle-treated cells, read-out: α-Tub 10 μM (fold-change in total α-tubulin)
[7] = brain, individual animals 1-3, read-out: Brain Concentration
[8] = brain, mean, n=3, read-out: Brain Concentration, Mean
[9] = brain, individual animals 1-3, read-out: Brain/Plasma
[10] = brain, mean, n=3, read-out: Brain/Plasma, Mean
[11] = plasma, individual animals 1-3, read-out: Plasma Concentration
[12] = plasma, mean, n=3, read-out: Plasma Concentration, Mean
[13] = individual animals 1-3, listed as 51990 (70)
[14] = QB1293 cells, 4 h incubation, 1 μM compound, relative to vehicle-treated cells, *p<0.05, **p<0.01, read-out: AcTub l μM (fold-change in acetylated α-tubulin)

Compound: CNCCCOc1cc(F)c(-c2c(Cl)nc3ncnn3c2N[C@@H](C)C(F)(F)F)c(F)c1 [Cevipabulin]
- competition for binding to MTs (MTs): competes with vincristine but not taxol or colchicine

Compound: Cc1nc2nc(Cl)c(-c3c(F)cc(C#CCCO)cc3F)c(N(C)[C@H](C)C(C)C)n2n1 [TAL-665, (R)-4-(4-(5-chloro-2-methyl-7-(methyl(3-methylbutan-2-yl)amino)-[1,2,4]triazolo[1,5-a]pyrimidin-6-yl)-3,5-difluorophenyl)but-3-yn-1-ol]
- fold induction at 1 µM (total α-tubulin; [2]): 0.91
- fold induction at 10 µM (total α-tubulin; [3]): 0.96
- fold induction at 1 µM (acetylated α-tubulin; [4]): 1.05

- Kp (B/P of Table 4): 0.44
Compound: CC(C)[C@@H](C)Nc1c(-c2c(F)cc(C#CCCO)cc2F)c(Cl)nc2ncnn12 [TAL-598, (R)-4-(4-(5-chloro-7-((3-methylbutan-2-yl)amino)-[1,2,4]triazolo[1,5-a]pyrimidin-6-yl)-3,5-difluorophenyl)but-3-yn-1-ol]
- fold induction at 1 µM (total α-tubulin; [2]): 0.92

Compound: 4-(5-chloro-7-(piperidin-1-yl)-[1,2,4]triazolo[1,5-a]pyrimidin-6-yl)-3,5-difluorobenzonitrile [Compound 74]
- α-Tub 1 μM (fold-change in total α-tubulin) (total α-tubulin; 4 h incubation, 1 μM compound, relative to vehicle-treated cells): 0.98 +/− 0.02 fold-change
- α-Tub 10 μM (fold-change in total α-tubulin) (total α-tubulin; 4 h incubation, 10 μM compound, relative to vehicle-treated cells): 0.95 +/− 0.03 fold-change
- Class (acetylated α-tubulin; Table 2, triazolopyrimidine MT-activity class): 1

- concentration at 1 h [1, 7]: 158 ng/g
- concentration at 1 h [1, 8]: 183 ng/g
- Kp at 1 h [1, 9]: 0.9
- Kp at 1 h [1, 10]: 1.21
- concentration at 1 h [1, 11]: 0.175 µg/mL
- concentration at 1 h [1, 12]: 0.151 µg/mL
- Brain Concentration [1, 13]: 186 ng/g and 206 ng/g
- Plasma Concentration [1, 13]: 0.133 µg/mL and 0.146 µg/mL
- Brain/Plasma [1, 13]: 1.40 and 1.41
Compound: C[C@@H](Nc1c(-c2ccc(C#N)cc2F)c(Cl)nc2ncnn12)C(C)(C)C [Compound 70, (R)-4-(5-Chloro-7-((3,3-dimethylbutan-2-yl)amino)-[1,2,4]triazolo[1,5-a]pyrimidin-6-yl)-3-fluorobenzonitrile]
- fold induction at 1 µM (total α-tubulin; [5]): 0.86
- fold induction at 10 µM (total α-tubulin; [6]): 0.93
- AcTub 10 μM (fold-change in acetylated α-tubulin) (acetylated α-tubulin; QB1293 cells, 4 h incubation, 10 μM compound, relative to vehicle-treated cells, *p<0.05, **p<0.01): 7.67 ± 0.70 fold-change

- concentration at 1 h [1, 7]: 209 ng/g
- concentration at 1 h [1, 8]: 225 ng/g
- Kp at 1 h [1, 9]: 0.86
- Kp at 1 h [1, 10]: 1.09
- concentration at 1 h [1, 11]: 0.242 µg/mL
- concentration at 1 h [1, 12]: 0.206 µg/mL
- Brain Concentration ([1]; individual animals 1-3): 211 ng/g and 254 ng/g
- Plasma Concentration ([1]; individual animals 1-3): 0.186 µg/mL and 0.19 µg/mL
- Brain/Plasma ([1]; individual animals 1-3): 1.13 and 1.34
Compound: CC(C)[C@@H](C)Nc1c(-c2ccc(C#N)cc2F)c(Cl)nc2ncnn12 [CNDR-51993, (R)-4-(5-chloro-7-((3-methylbutan-2-yl)amino)-[1,2,4]triazolo[1,5-a]pyrimidin-6-yl)-3-fluorobenzonitrile]

Compound: C[C@H](Nc1c(-c2c(F)cc(I)cc2F)c(Cl)nc2ncnn12)C(F)(F)F [TAL-640]
- fold induction at 1 µM (total α-tubulin; [2]): 1.01
- fold induction at 10 µM (total α-tubulin; [3]): 0.93
- fold induction at 1 µM (acetylated α-tubulin; [4]): 1.9

- Kp (B/P of Table 4): 0.46
Compound: [2H]C([2H])(O)CC#Cc1cc(F)c(-c2c(Cl)nc3ncnn3c2N[C@H](C)C(C)(C)C)c(F)c1 [TAL-651, (R)-4-(4-(5-chloro-7-((3,3-dimethylbutan-2-yl)amino)-[1,2,4]triazolo[1,5-a]pyrimidin-6-yl)-3,5-difluorophenyl)but-3-yn-1,1-d2-1-ol]
- fold induction at 1 µM (total α-tubulin; [2]): 1.02
- fold induction at 10 µM (total α-tubulin; [3]): 1.01

Compound: CC(C)[C@@H](C)Nc1c(-c2ccc(C#N)cc2F)c(Cl)nc2ncnn12 [Compound 67, (R)-4-(5-chloro-7-((3-methylbutan-2-yl)amino)-[1,2,4]triazolo[1,5-a]pyrimidin-6-yl)-3-fluorobenzonitrile]
- fold induction at 1 µM (total α-tubulin; [5]): 0.99
- fold induction at 10 µM (total α-tubulin; [6]): 0.93
- AcTub l μM (fold-change in acetylated α-tubulin) (acetylated α-tubulin; QB1293 cells, 4 h incubation, 1 μM compound, relative to vehicle-treated cells, *p<0.05, **p<0.01, listed as 52017 (67)): 2.79 +/− 1.11 fold-change

Compound: CC(C)[C@@H](Nc1c(-c2c(F)cc(C#N)cc2F)c(Cl)nc2ncnn12)C(F)(F)F [Compound 62, (R)-4-(5-chloro-7-((1,1,1-trifluoro-3-methylbutan-2-yl)amino)-[1,2,4]triazolo[1,5-a]pyrimidin-6-yl)-3,5-difluorobenzonitrile]
- fold induction at 1 µM (total α-tubulin; [5]): 1.02
- fold induction at 10 µM (total α-tubulin; [6]): 1.01
- fold induction at 1 µM (acetylated α-tubulin; [14]): 0.99 ± 0.06

- Kp (B/P of Table 4): 0.47
Compound: C[C@@H](Nc1c(-c2c(F)cc(C#CCCO)cc2F)c(Cl)nc2ncnn12)C(C)(C)C [TAL-600, (R)-4-(4-(5-chloro-7-((3,3-dimethylbutan-2-yl)amino)-[1,2,4]triazolo[1,5-a]pyrimidin-6-yl)-3,5-difluorophenyl)but-3-yn-1-ol]
- fold induction at 1 µM (total α-tubulin; [2]): 0.98
- fold induction at 10 µM (total α-tubulin; [3]): 0.98

Compound: C[C@@H](Nc1c(-c2c(F)cc(C#CCCN)cc2F)c(Cl)nc2ncnn12)C(C)(C)C [TAL-580, (R)-6-(4-(4-aminobut-1-yn-1-yl)-2,6-difluorophenyl)-5-chloro-N-(3,3-dimethylbutan-2-yl)-[1,2,4]triazolo[1,5-a]pyrimidin-7-amine hydrochloride]
- fold induction at 1 µM (total α-tubulin; [2]): 0.96
- fold induction at 10 µM (total α-tubulin; [3]): 0.91
- Kp (B/P of Table 4): 1.04

Compound: N#Cc1cc(F)c(-c2c(Cl)nc3ncnn3c2N2CCCCC2)c(F)c1 [Compound 73]
- fold induction at 1 µM (total α-tubulin; [5]): 1
- fold induction at 10 µM (total α-tubulin; [6]): 1.07
- fold induction at 1 µM (acetylated α-tubulin; [14]): 1

Compound: C[C@@H](Nc1c(-c2c(F)cc(C#CCN(C)C)cc2F)c(Cl)nc2ncnn12)C(C)(C)C [TAL-555, (R)-5-chloro-6-(4-(3-(dimethylamino)prop-1-yn-1-yl)-2,6-difluorophenyl)-N-(3,3-dimethylbutan-2-yl)-[1,2,4]triazolo[1,5-a]pyrimidin-7-amine]
- fold induction at 1 µM (total α-tubulin; QBI293, Table 4, 4 h, 1 μM, read-out: α-Tub l μM (fold-change over control (DMSO)-treated cells)): 1
- fold induction at 10 µM (total α-tubulin; QBI293, Table 4, 4 h, 10 μM, read-out: α-Tub 10 μM (fold-change over control (DMSO)-treated cells)): 0.84
- fold induction at 1 µM (acetylated α-tubulin; [4]): 1.36

Compound: CC(C)[C@@H](C)Nc1c(-c2c(F)cc(C#CCCCO)cc2F)c(Cl)nc2ncnn12 [TAL-599, (R)-5-(4-(5-chloro-7-((3-methylbutan-2-yl)amino)-[1,2,4]triazolo[1,5-a]pyrimidin-6-yl)-3,5-difluorophenyl)pent-4-yn-1-ol]
- fold induction at 1 µM (total α-tubulin; [2]): 1
- fold induction at 1 µM (acetylated α-tubulin; [4]): 2.6
